Source: ChEMBL document CHEMBL1201861, “Genomics of Drug Sensitity in Cancer screening data, Wellcome Trust Sanger Institute”

How the values were obtained:
Assay in all cases: cells
Calu-6 = format: functional, cell-based, Homo sapiens;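 also: growth of human Calu-6 cells, read out by a cell viability assay, IC50 marking inhibition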
Description: SANGER: Inhibition of human Calu-6 cell growth in a cell viability assay.

DB = format: functional, cell-based, Homo sapiens
Description: SANGER: Inhibition of human DB cell growth in a cell viability assay.

EM-2 = format: functional, cell-based, Homo sapiens;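 also: growth inhibition of EM-2 cells, read out with a cell viability assay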
Description: SANGER: Inhibition of human EM-2 cell growth in a cell viability assay.

ES7 = format: functional, cell-based, Homo sapiens;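 also: growth inhibition of cultured human ES7 cells, read out as cell viability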
Description: SANGER: Inhibition of human ES7 cell growth in a cell viability assay.

GOTO = format: functional, cell-based, Homo sapiens;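 also: growth inhibition of GOTO cells, read out by a cell viability assay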
Description: SANGER: Inhibition of human GOTO cell growth in a cell viability assay.

HCE-4 = format: functional, cell-based, Homo sapiens;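 also: cell viability assay measuring inhibition of growth in the human HCE-4 cell line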
Description: SANGER: Inhibition of human HCE-4 cell growth in a cell viability assay.

HDLM-2 = format: functional, cell-based, Homo sapiens;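 also: cell viability assay measuring suppression of HDLM-2 proliferation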
Description: SANGER: Inhibition of human HDLM-2 cell growth in a cell viability assay.

IST-SL1 = format: functional, cell-based, Homo sapiens;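 also: growth inhibition of human IST-SL1 cells, read out with a cell viability assay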
Description: SANGER: Inhibition of human IST-SL1 cell growth in a cell viability assay.

K562 = format: functional, cell-based, Homo sapiens
Description: SANGER: Inhibition of human K-562 cell growth in a cell viability assay.

KP-N-YS = format: functional, cell-based, Homo sapiens;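 also: cell viability assay measuring inhibition of cell line growth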
Description: SANGER: Inhibition of human KP-N-YS cell growth in a cell viability assay.

KS-1 = format: functional, cell-based, Homo sapiens;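 also: growth inhibition of KS-1 cells, read out with a cell viability assay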
Description: SANGER: Inhibition of human KS-1 cell growth in a cell viability assay.

KU812 cell line = format: functional, cell-based, Homo sapiens;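 also: growth inhibition of KU812 cells, read out with a cell viability assay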
Description: SANGER: Inhibition of human KU812 cell growth in a cell viability assay.

KY821 = format: functional, cell-based, Homo sapiens;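 also: growth inhibition of human KY821 cells, read out by a cell viability assay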
Description: SANGER: Inhibition of human KY821 cell growth in a cell viability assay.

L-428 = format: functional, cell-based, Homo sapiens
Description: SANGER: Inhibition of human L-428 cell growth in a cell viability assay.

LAN-6 = format: functional, cell-based, Homo sapiens;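 also: growth inhibition of LAN-6 cells, determined with a cell viability assay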
Description: SANGER: Inhibition of human LAN-6 cell growth in a cell viability assay.

LB2241-RCC = format: functional, cell-based, Homo sapiens;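 also: cell viability assay measuring how strongly the cultured human renal carcinoma line is prevented from growing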
Description: SANGER: Inhibition of human LB2241-RCC cell growth in a cell viability assay.

LS-513 = format: functional, cell-based, Homo sapiens
Description: SANGER: Inhibition of human LS-513 cell growth in a cell viability assay.

MFH-ino = format: functional, cell-based, Homo sapiens;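 also: growth inhibition of human MFH-ino cells, read out by a cell viability assay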
Description: SANGER: Inhibition of human MFH-ino cell growth in a cell viability assay.

ML-2 = format: functional, cell-based, Homo sapiens;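 also: growth inhibition of ML-2 cells, measured with a cell viability readout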
Description: SANGER: Inhibition of human ML-2 cell growth in a cell viability assay.

MPP-89 = format: functional, cell-based, Homo sapiens;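 also: growth inhibition of human MPP-89 cells, read out with a cell viability assay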
Description: SANGER: Inhibition of human MPP-89 cell growth in a cell viability assay.

MV4-11 = format: functional, cell-based, Homo sapiens, MV-4-11;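 also: cell viability readout measuring growth inhibition of human MV-4-11 cells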
Description: SANGER: Inhibition of human MV-4-11 cell growth in a cell viability assay.

MZ2-MEL = format: functional, cell-based, Homo sapiens;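 also: growth inhibition of MZ2-MEL cells read out with a cell viability assay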
Description: SANGER: Inhibition of human MZ2-MEL cell growth in a cell viability assay.

MZ7-mel = format: functional, cell-based, Homo sapiens;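 also: growth inhibition of human MZ7-mel cells, measured by a cell viability assay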
Description: SANGER: Inhibition of human MZ7-mel cell growth in a cell viability assay.

Mo = format: functional, cell-based, Homo sapiens
Description: SANGER: Inhibition of human Mo-T cell growth in a cell viability assay.

NB17 = format: functional, cell-based, Homo sapiens; conditions: Homo sapiens, NB17;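 also: growth inhibition of NB17 cells, read out with a cell viability assay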
Description: SANGER: Inhibition of human NB17 cell growth in a cell viability assay.

NB69 = format: functional, cell-based, Homo sapiens;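 also: growth inhibition of NB69 cells, determined by a cell viability assay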
Description: SANGER: Inhibition of human NB69 cell growth in a cell viability assay.

NCI-H1304 = format: functional, cell-based, Homo sapiens;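 also: growth inhibition of the cancer cell line, measured in a cell viability assay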
Description: SANGER: Inhibition of human NCI-H1304 cell growth in a cell viability assay.

NCI-H1395 = format: functional, cell-based, Homo sapiens;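 also: cell viability assay read-out quantifying reduced proliferation of human NCI-H1395 cells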
Description: SANGER: Inhibition of human NCI-H1395 cell growth in a cell viability assay.

NCI-H1838 = format: functional, cell-based, Homo sapiens;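 also: growth inhibition of NCI-H1838 cells, determined with a cell viability readout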
Description: SANGER: Inhibition of human NCI-H1838 cell growth in a cell viability assay.

NCI-H2126 = format: functional, cell-based, Homo sapiens;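 also: growth inhibition of the cancer cell line, determined with a cell viability readout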
Description: SANGER: Inhibition of human NCI-H2126 cell growth in a cell viability assay.

NCI-H720 = format: functional, cell-based, Homo sapiens;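 also: growth inhibition of human NCI-H720 cells determined by a cell viability assay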
Description: SANGER: Inhibition of human NCI-H720 cell growth in a cell viability assay.

SNU1 = format: functional, cell-based, Homo sapiens;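 also: growth inhibition of human NCI-SNU-1 cells, measured with a cell viability assay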
Description: SANGER: Inhibition of human NCI-SNU-1 cell growth in a cell viability assay.

NOS-1 = format: functional, cell-based, Homo sapiens;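 also: growth inhibition of the human NOS-1 cell line, read out with a cell viability assay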
Description: SANGER: Inhibition of human NOS-1 cell growth in a cell viability assay.

NTERA-2-cl-D1 = format: functional, cell-based, Homo sapiens;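 also: inhibition of cell growth, measured with a cell viability assay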
Description: SANGER: Inhibition of human NTERA-S-cl-D1 cell growth in a cell viability assay.

OCUB-M = format: functional, cell-based, Homo sapiens;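 also: growth inhibition of the cancer cell line, read out through a cell viability assay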
Description: SANGER: Inhibition of human OCUB-M cell growth in a cell viability assay.

ONS-76 = format: functional, cell-based, Homo sapiens;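 also: growth inhibition of human ONS-76 cells, read out with a cell viability assay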
Description: SANGER: Inhibition of human ONS-76 cell growth in a cell viability assay.

P30-OHK = format: functional, cell-based, Homo sapiens;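 also: growth inhibition of the P30-OHK cell line, read out with a cell viability assay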
Description: SANGER: Inhibition of human P30-OHK cell growth in a cell viability assay.

SF-126 = format: functional, cell-based, Homo sapiens;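 also: growth inhibition of human SF126 cells, read out with a cell viability assay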
Description: SANGER: Inhibition of human SF126 cell growth in a cell viability assay.

SF-539 = format: functional, cell-based, Homo sapiens;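 also: Read-out is a cell viability assay, with IC50 reflecting inhibition of cell growth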
Description: SANGER: Inhibition of human SF539 cell growth in a cell viability assay.

SW872 = format: functional, cell-based, Homo sapiens;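 also: growth inhibition of SW872 cells, read out by a viability assay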
Description: SANGER: Inhibition of human SW872 cell growth in a cell viability assay.

697 = format: functional, cell-based, Homo sapiens
Description: SANGER: Inhibition of human 697 cell growth in a cell viability assay.

8-MG-BA = format: functional, cell-based, Homo sapiens;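 also: growth inhibition of 8-MG-BA cells, read out with a cell viability assay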
Description: SANGER: Inhibition of human 8-MG-BA cell growth in a cell viability assay.

A253 cell line = format: functional, cell-based, Homo sapiens;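 also: growth inhibition of A253 cells, read out with a cell viability assay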
Description: SANGER: Inhibition of human A253 cell growth in a cell viability assay.

A3-KAW = format: functional, cell-based, Homo sapiens;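 also: growth inhibition of human A3-KAW cells, read out with a cell viability assay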
Description: SANGER: Inhibition of human A3-KAW cell growth in a cell viability assay.

BB49-HNC = format: functional, cell-based, Homo sapiens;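 also: cell viability assay read-out, reported as inhibition of BB49-HNC cell growth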
Description: SANGER: Inhibition of human BB49-HNC cell growth in a cell viability assay.

TGBC1TKB = format: functional, cell-based, Homo sapiens;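 also: growth inhibition of TGBC1TKB cells, read out by a cell viability assay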
Description: SANGER: Inhibition of human TGBC1TKB cell growth in a cell viability assay.

CAS-1 = format: functional, cell-based, Homo sapiens;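 also: growth inhibition of CAS-1 cells, measured with a cell viability assay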
Description: SANGER: Inhibition of human CAS-1 cell growth in a cell viability assay.

CGTH-W-1 = format: functional, cell-based, Homo sapiens;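 also: growth inhibition of human CGTH-W-1 cells measured by cell viability assay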
Description: SANGER: Inhibition of human CGTH-W-1 cell growth in a cell viability assay.

HCC 2998 = format: functional, cell-based, Homo sapiens; conditions: hcc 2998;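 also: growth inhibition of human HCC2998 cells, measured with a cell viability read-out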
Description: SANGER: Inhibition of human HCC2998 cell growth in a cell viability assay.

In the case of `Cc1ccc(-c2c(C(=O)CCl)n(CCCO)c3ncnc(N)c23)cc1`, the IC50 (Calu-6; Homo sapiens, Calu-6) is reported as greater than 4000 nM, the IC50 (DB; Homo sapiens, DB) is reported as greater than 4000 nM and the IC50 (EM-2; Homo sapiens, EM-2) is reported as greater than 4000 nM. For the same compound, the IC50 (ES7; Homo sapiens, ES7) was greater than 4000 nM, the IC50 (GOTO; Homo sapiens, GOTO) was greater than 4000 nM and the IC50 (HCE-4; Homo sapiens, HCE-4) was greater than 4000 nM. For the same compound, the IC50 (HDLM-2; Homo sapiens, HDLM-2) was greater than 4000 nM, the IC50 (IST-SL1; Homo sapiens, IST-SL1) was greater than 4000 nM and the IC50 (K562; Homo sapiens, K562) was greater than 4000 nM. The IC50 (KP-N-YS; Homo sapiens, KP-N-YS) was greater than 4000 nM, the IC50 (KS-1; Homo sapiens, KS-1) was 1050 nM and the IC50 (KU812 cell line; Homo sapiens, KU812) was greater than 4000 nM. For the same compound, the IC50 (KY821; Homo sapiens, KY821) was 3680 nM, the IC50 (L-428; Homo sapiens, L-428) was greater than 4000 nM and the IC50 (LAN-6; Homo sapiens, LAN-6) was greater than 4000 nM. The IC50 (LB2241-RCC; Homo sapiens, LB2241-RCC) was 699 nM, the IC50 (LS-513; Homo sapiens, LS-513) was greater than 4000 nM and the IC50 (MFH-ino; Homo sapiens, MFH-ino) was greater than 4000 nM. It also gave an IC50 (ML-2; Homo sapiens, ML-2) greater than 4000 nM, an IC50 (MPP-89; Homo sapiens, MPP-89) greater than 4000 nM and an IC50 (MV4-11; Homo sapiens, MV4-11) greater than 4000 nM. For the same compound, the IC50 (MZ2-MEL; Homo sapiens, MZ2-MEL) was greater than 4000 nM, the IC50 (MZ7-mel; Homo sapiens, MZ7-mel) was greater than 4000 nM and the IC50 (Mo; Homo sapiens, Mo) was greater than 4000 nM. The IC50 (NB17) was 1120 nM, the IC50 (NB69; Homo sapiens, NB69) was greater than 4000 nM and the IC50 (NCI-H1304; Homo sapiens, NCI-H1304) was greater than 4000 nM. The IC50 (NCI-H1395; Homo sapiens, NCI-H1395) was greater than 4000 nM, the IC50 (NCI-H1838; Homo sapiens, NCI-H1838) was greater than 4000 nM and the IC50 (NCI-H2126; Homo sapiens, NCI-H2126) was greater than 4000 nM. For the same compound, the IC50 (NCI-H720; Homo sapiens, NCI-H720) was greater than 4000 nM, the IC50 (SNU1; Homo sapiens, SNU1) was greater than 4000 nM and the IC50 (NOS-1; Homo sapiens, NOS-1) was greater than 4000 nM. For the same compound, the IC50 (NTERA-2-cl-D1; Homo sapiens, NTERA-2-cl-D1) was greater than 4000 nM, the IC50 (OCUB-M; Homo sapiens, OCUB-M) was greater than 4000 nM and the IC50 (ONS-76; Homo sapiens, ONS-76) was greater than 4000 nM. It also gave an IC50 (P30-OHK; Homo sapiens, P30-OHK) greater than 4000 nM, an IC50 (SF-126; Homo sapiens, SF-126) greater than 4000 nM and an IC50 (SF-539; Homo sapiens, SF-539) greater than 4000 nM. It also gave an IC50 (SW872; Homo sapiens, SW872) greater than 4000 nM, an IC50 (697; Homo sapiens) of 293 nM and an IC50 (8-MG-BA; Homo sapiens, 8-MG-BA) greater than 4000 nM. It also gave an IC50 (A253 cell line; Homo sapiens, A253) greater than 4000 nM, an IC50 (A3-KAW; Homo sapiens, A3-KAW) greater than 4000 nM and an IC50 (BB49-HNC; Homo sapiens, BB49-HNC) greater than 4000 nM. The IC50 (TGBC1TKB; Homo sapiens, TGBC1TKB) was greater than 4000 nM, the IC50 (CAS-1; Homo sapiens, CAS-1) was greater than 4000 nM and the IC50 (CGTH-W-1; Homo sapiens, CGTH-W-1) was greater than 4000 nM.

Compound `COc1cc2ncn(-c3cc(OCc4ccccc4C(F)(F)F)c(C(N)=O)s3)c2cc1OC` [GW843682X] has an IC50 (Calu-6; Homo sapiens, Calu-6) of 36.7 nM, an IC50 (DB; Homo sapiens, DB) greater than 256 nM and an IC50 (EM-2; Homo sapiens, EM-2) of 111 nM. It also gave an IC50 (ES7; Homo sapiens, ES7) greater than 256 nM, an IC50 (GOTO; Homo sapiens, GOTO) greater than 256 nM and an IC50 (HCE-4; Homo sapiens, HCE-4) of 13.9 nM. For the same compound, the IC50 (HDLM-2; Homo sapiens, HDLM-2) was 69.5 nM, the IC50 (IST-SL1; Homo sapiens, IST-SL1) was greater than 256 nM and the IC50 (K562; Homo sapiens, K562) was 59.4 nM. It also gave an IC50 (KP-N-YS; Homo sapiens, KP-N-YS) of 27.2 nM, an IC50 (KS-1; Homo sapiens, KS-1) of 26.6 nM and an IC50 (KU812 cell line; Homo sapiens, KU812) of 85.2 nM. It also gave an IC50 (KY821; Homo sapiens, KY821) of 15.9 nM, an IC50 (L-428; Homo sapiens, L-428) of 110 nM and an IC50 (LAN-6; Homo sapiens, LAN-6) of 139 nM. The IC50 (LB2241-RCC; Homo sapiens, LB2241-RCC) was greater than 256 nM, the IC50 (LS-513; Homo sapiens, LS-513) was 212 nM and the IC50 (MFH-ino; Homo sapiens, MFH-ino) was 35.5 nM. The IC50 (ML-2; Homo sapiens, ML-2) was 50.3 nM, the IC50 (MPP-89; Homo sapiens, MPP-89) was 226 nM and the IC50 (MV4-11; Homo sapiens, MV4-11) was 25.9 nM. The IC50 (MZ2-MEL; Homo sapiens, MZ2-MEL) was 126 nM, the IC50 (MZ7-mel; Homo sapiens, MZ7-mel) was 83.9 nM and the IC50 (Mo; Homo sapiens, Mo) was greater than 256 nM. The IC50 (NB17) was 41 nM, the IC50 (NB69; Homo sapiens, NB69) was greater than 256 nM and the IC50 (NCI-H1304; Homo sapiens, NCI-H1304) was 105 nM. The IC50 (NCI-H1395; Homo sapiens, NCI-H1395) was greater than 256 nM, the IC50 (NCI-H1838; Homo sapiens, NCI-H1838) was greater than 256 nM and the IC50 (NCI-H2126; Homo sapiens, NCI-H2126) was 67.9 nM. For the same compound, the IC50 (NCI-H720; Homo sapiens, NCI-H720) was greater than 256 nM, the IC50 (SNU1; Homo sapiens, SNU1) was greater than 256 nM and the IC50 (NOS-1; Homo sapiens, NOS-1) was 16.6 nM. The IC50 (NTERA-2-cl-D1; Homo sapiens, NTERA-2-cl-D1) was 17.4 nM, the IC50 (OCUB-M; Homo sapiens, OCUB-M) was 12.2 nM and the IC50 (ONS-76; Homo sapiens, ONS-76) was 77.8 nM. The IC50 (P30-OHK; Homo sapiens, P30-OHK) was greater than 256 nM, the IC50 (SF-126; Homo sapiens, SF-126) was 138 nM and the IC50 (SF-539; Homo sapiens, SF-539) was greater than 256 nM. For the same compound, the IC50 (SW872; Homo sapiens, SW872) was 27.7 nM, the IC50 (697; Homo sapiens) was 9.86 nM and the IC50 (8-MG-BA; Homo sapiens, 8-MG-BA) was 19.4 nM. For the same compound, the IC50 (A253 cell line; Homo sapiens, A253) was 53.2 nM, the IC50 (A3-KAW; Homo sapiens, A3-KAW) was 51.7 nM and the IC50 (BB49-HNC; Homo sapiens, BB49-HNC) was greater than 256 nM. For the same compound, the IC50 (TGBC1TKB; Homo sapiens, TGBC1TKB) was 33.6 nM, the IC50 (CAS-1; Homo sapiens, CAS-1) was greater than 256 nM and the IC50 (CGTH-W-1; Homo sapiens, CGTH-W-1) was greater than 256 nM.

BLEOMYCIN was tested, and the IC50 (Calu-6; calu-6) was 7670 nM, the IC50 (DB; db) was 5120 nM and the IC50 (EM-2; em-2) was 84800 nM. The IC50 (ES7; es7) was 378 nM, the IC50 (GOTO; goto) was 550 nM and the IC50 (HCC 2998) was 6.59 nM. It also gave an IC50 (HCE-4; hce-4) of 453 nM, an IC50 (HDLM-2; hdlm-2) of 14300 nM and an IC50 (IST-SL1; ist-sl1) of 54600 nM. For the same compound, the IC50 (K562; k562) was 126000 nM, the IC50 (KP-N-YS; kp-n-ys) was 30300 nM and the IC50 (KS-1; ks-1) was 10.8 nM. For the same compound, the IC50 (KU812 cell line; ku812) was 68000 nM, the IC50 (KY821; ky821) was 471000 nM and the IC50 (L-428; l-428) was 52300 nM. It also gave an IC50 (LAN-6; lan-6) of 14600 nM, an IC50 (LB2241-RCC; lb2241-rcc) of 738 nM and an IC50 (LS-513; ls-513) of 29000 nM. The IC50 (MFH-ino; mfh-ino) was 2.65 nM, the IC50 (ML-2; ml-2) was 132 nM and the IC50 (MPP-89; mpp-89) was 39900 nM. It also gave an IC50 (MV4-11; mv-4-11) of 9.91 nM, an IC50 (MZ2-MEL; mz2-mel) of 2950 nM and an IC50 (MZ7-mel; mz7-mel) of 130 nM. For the same compound, the IC50 (Mo; mo) was 103000 nM, the IC50 (NB69; nb69) was 923 nM and the IC50 (NCI-H1304; nci-h1304) was 4100 nM. It also gave an IC50 (NCI-H1395; nci-h1395) of 384000 nM, an IC50 (NCI-H1838; nci-h1838) of 24500 nM and an IC50 (NCI-H2126; nci-h2126) of 358000 nM. It also gave an IC50 (NCI-H720; nci-h720) of 103000 nM, an IC50 (SNU1; snu1) of 2840 nM and an IC50 (NOS-1; nos-1) of 1310 nM. The IC50 (NTERA-2-cl-D1; ntera-2-cl-d1) was 0.139 nM, the IC50 (OCUB-M; ocub-m) was 1810 nM and the IC50 (ONS-76; ons-76) was 854 nM. The IC50 (P30-OHK; p30-ohk) was 7100 nM, the IC50 (SF-126; sf-126) was 3090 nM and the IC50 (SF-539; sf-539) was 393 nM. The IC50 (SW872; sw872) was 3450 nM, the IC50 697 was 1580 nM and the IC50 (8-MG-BA; 8-mg-ba) was 1480 nM. It also gave an IC50 (A253 cell line; a253) of 2860 nM, an IC50 (A3-KAW; a3-kaw) of 717 nM and an IC50 (BB49-HNC; bb49-hnc) of 38800 nM. The IC50 (TGBC1TKB; tgbc1tkb) was 74100 nM, the IC50 (CAS-1; cas-1) was 81000 nM and the IC50 (CGTH-W-1; cgth-w-1) was 4300 nM.
